The values that follow come from patent publication US9051273B2, “Phosphodiesterase 4 inhibitor capable of avoiding vomiting” (priority 2012, dated 2015).

One series deals with PDE4D5 (Homo sapiens, UniProt Q08499). As to the kind of experiment: Phosphodiesterase 4 inhibitory activity test (IMAP fluorescence polarization), PDE4D5. Conditions: Table 1. In kind it is biochemical. In general terms: Fluorescence polarisation rises when a labelled molecule tumbles more slowly, as on binding a larger partner.
A further series concerns the target PDE4D4 (Homo sapiens, UniProt Q08499). As to the kind of experiment: Phosphodiesterase 4 inhibitory activity test (IMAP fluorescence polarization), PDE4D4. In kind it is biochemical. Conditions: Table 1.
For series [1], the system named is mice with scopolamine-induced cognitive deficits. The series can be described thus: Morris water maze, learning and memory with scopolamine-induced cognitive deficits in mice. The format is in vivo, kunming mice. To be noted: administered 1 week, space exploration on fifth day, X ± S. On the procedure:
1. The effects of the new PDE4 inhibitor III-3 on the learning and memory with scopolamine-induced cognitive deficits in mice
After being continuously administered with veh or compounds for 1 week, the behavioral tests are determined by Morris water maze. 20 minutes before test, saline is given into the blank control mice through intraperitoneal injection, while scopolamine is intraperitoneally injected to the other five groups. These mice are continuously trained for 4 days, and the space exploration experiment is performed on the fifth day for recording the latency to target quadrant, the number of crossing and retention time in the target quadrant during the test period of each mice.

Another series deals with beagle dogs. As to the kind of experiment: Potential vomiting effects (emesis) in beagle dogs. The format is in vivo. Conditions: observation 120 minutes. On the procedure:
2. Preliminary assessing the potential vomiting effects of new PDE4 inhibitor III-3
The potential vomiting observation time is 120 minutes after the oral administration. The latency was determined by the interval time from the oral administration of the drugs to the nausea, retching, a lot of salivation and vomiting of gastric contents. The incidence of emesis was also recorded.

[2] abbreviates: scopolamine + Rolipram 0.5 mg/kg.

For orientation: IC50 means the concentration needed to halve the response being measured. The low end stands for greater potency, the high end for weaker potency.

Chain of PDE4D5 (Q08499 1-745 isoform Q08499-6): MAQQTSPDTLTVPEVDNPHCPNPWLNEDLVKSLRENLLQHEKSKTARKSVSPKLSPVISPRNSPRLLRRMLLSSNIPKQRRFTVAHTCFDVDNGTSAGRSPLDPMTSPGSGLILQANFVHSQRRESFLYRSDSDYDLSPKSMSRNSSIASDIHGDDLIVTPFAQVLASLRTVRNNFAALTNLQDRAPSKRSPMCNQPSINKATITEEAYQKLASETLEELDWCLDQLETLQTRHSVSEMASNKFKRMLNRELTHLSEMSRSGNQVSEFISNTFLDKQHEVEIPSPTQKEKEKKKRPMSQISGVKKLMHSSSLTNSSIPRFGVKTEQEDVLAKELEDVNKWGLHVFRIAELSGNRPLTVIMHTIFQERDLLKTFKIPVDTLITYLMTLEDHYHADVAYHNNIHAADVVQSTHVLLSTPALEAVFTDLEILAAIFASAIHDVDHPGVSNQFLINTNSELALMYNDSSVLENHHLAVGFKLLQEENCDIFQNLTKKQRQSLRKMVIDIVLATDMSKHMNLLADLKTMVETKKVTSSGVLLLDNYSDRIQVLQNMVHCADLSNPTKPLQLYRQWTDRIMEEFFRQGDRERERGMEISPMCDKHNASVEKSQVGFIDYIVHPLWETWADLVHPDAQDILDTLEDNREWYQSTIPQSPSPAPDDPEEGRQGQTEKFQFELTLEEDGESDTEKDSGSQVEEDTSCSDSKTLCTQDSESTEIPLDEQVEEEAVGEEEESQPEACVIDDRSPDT
Chain of PDE4D4 (Q08499 whole entry): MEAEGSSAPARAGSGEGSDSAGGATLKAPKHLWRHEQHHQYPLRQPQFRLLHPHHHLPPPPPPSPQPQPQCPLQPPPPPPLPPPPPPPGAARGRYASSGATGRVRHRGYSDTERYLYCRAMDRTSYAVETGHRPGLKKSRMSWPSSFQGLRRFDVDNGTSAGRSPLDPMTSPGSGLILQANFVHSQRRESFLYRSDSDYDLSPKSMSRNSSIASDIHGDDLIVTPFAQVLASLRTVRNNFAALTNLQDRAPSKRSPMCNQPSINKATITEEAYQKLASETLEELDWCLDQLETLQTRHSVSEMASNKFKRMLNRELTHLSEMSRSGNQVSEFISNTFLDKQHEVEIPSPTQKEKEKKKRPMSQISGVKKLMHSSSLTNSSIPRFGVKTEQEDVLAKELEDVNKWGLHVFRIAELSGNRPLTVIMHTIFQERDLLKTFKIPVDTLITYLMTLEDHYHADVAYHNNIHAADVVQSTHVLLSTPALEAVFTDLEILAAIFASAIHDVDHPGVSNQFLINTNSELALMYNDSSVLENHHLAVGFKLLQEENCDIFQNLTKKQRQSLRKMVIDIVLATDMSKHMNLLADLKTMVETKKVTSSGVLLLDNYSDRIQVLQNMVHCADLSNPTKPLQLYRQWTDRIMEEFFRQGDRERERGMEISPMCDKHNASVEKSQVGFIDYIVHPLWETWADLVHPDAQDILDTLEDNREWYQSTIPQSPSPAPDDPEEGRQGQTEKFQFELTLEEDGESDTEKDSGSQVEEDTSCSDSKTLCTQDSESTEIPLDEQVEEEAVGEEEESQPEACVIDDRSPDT
Source text for PDE4D4: (§1) Phosphodiesterase 4 inhibitory activity test utilizes IMAP technology, which is called immobilized metal ion affinity-based fluorescence polarization and provide a stable and accurate approach for determining the inhibitory potential of compounds.
Source text for PDE4D5: as §1

In the case of `COc1ccc(CN2CCN(c3ccccc3OC)CC2)cc1-c1cccc(Cl)c1` [II-1], the 50% inhibitory concentration (IC50) stood at 83.7 µM at PDE4D5 and 115 µM at PDE4D4.

In the case of `COc1ccc(CN2CCN(c3ccccc3Cl)CC2)cc1-c1cccc(Cl)c1` [II-2], the concentration for half-maximal inhibition (IC50) amounted to 50.9 µM against PDE4D5 and 141 µM against PDE4D4.

As to `COc1ccc(Cn2ncc(Cl)c(Cl)c2=O)cc1-c1cccc(Cl)c1` [III-1], the IC50 against PDE4D5 was 8.32 µM; against PDE4D4, 22.4 µM.

As for `COc1ccc(Cn2nc(N3CCN(c4ccccc4Cl)CC3)ccc2=O)cc1-c1cccc(Cl)c1` [III-2], the IC50 on PDE4D5 was 110 µM; on PDE4D4, 137 µM.

Take `COc1ccccc1OCCNc1ccc(=O)n(Cc2ccc(OC)c(-c3cccc(Cl)c3)c2)n1` [III-3]: the concentration for half-maximal inhibition (IC50) at PDE4D5 came out at 8.48 µM. In addition, in series [1] (scopolamine + III-3 0.2 mg/kg), the “Latency to target quadrant (t/s)” value is reported as 9.96 ± 2.32 s, the “Retention time in target quadrant time (t/s)” value is 42.78 ± 4.56 s and the “The number of crossing target quadrant” value came out at 6.67 ± 1.29. In addition, in the series with beagle dogs (1.0 mg/kg oral), the Incidence of emesis is 0/3 and the “Latency period (min) of emesis” value is recorded as greater than 120 min. The compound further returned an IC50 at PDE4D4 of 7.82 µM.

With `COc1ccc(C2CNC(=O)C2)cc1OC1CCCC1` (centres unmarked) [Rolipram, reference compound], in series [1] (setting [2]), the “Latency to target quadrant (t/s)” value was 16.09 ± 3.29 s, the “Retention time in target quadrant time (t/s)” value stood at 38.34 ± 3.65 s and the “The number of crossing target quadrant” value was determined as 6.89 ± 0.59. Also, in the series on beagle dogs (0.5 mg/kg oral gavage), the Incidence of emesis is given as 6/6 and the “Latency period (min) of emesis” value is 10.67 ± 2.68 min.
